The values below come from ChEMBL document CHEMBL5385946, “Discovery of Dehydroabietylamine Derivatives as Antibacterial and Antifungal Agents” (J Nat Prod, 2024).

Experiment [1] has as its system Rhizoctonia solani. Kind of experiment: Antifungal activity against Rhizoctonia solani assessed as appearance of rough surface at 25 ug/ml by SEM analysis. The class given is functional, organism-based. The conditions noted are these: dose 25.0 µg/ml.
The subject of experiment [2] is Rhizoctonia solani. Kind of experiment: Antifungal activity against Rhizoctonia solani assessed as hyphal surface secretion at 25 ug/ml by SEM analysis. The class given is functional, organism-based. Conditions: dose 25.0 µg/ml.
The test system of experiment [3] is Rhizoctonia solani. Kind of experiment: Antifungal activity against Rhizoctonia solani assessed as appearance of twisted hyphae at 25 ug/ml by SEM analysis. The class given is functional, organism-based. The conditions noted are these: dose 25.0 µg/ml.
A further experiment relates to Escherichia coli. Kind of experiment: Antibacterial activity against Escherichia coli CMCC(B)44102 by agar dilution method. The class given is functional.
Experiment [4] has as its system Rhizoctonia solani. Kind of experiment: Antifungal activity against Rhizoctonia solani assessed as appearance of irregular mycelium bending incubated for 36 hrs. The class given is functional, organism-based.
Experiment [5] deals with Rhizoctonia solani. Kind of experiment: Antifungal activity against Rhizoctonia solani assessed as protective effect at 200 ug/ml. The class given is functional. Conditions: dose 200 µg/ml.
The subject of experiment [6] is Rhizoctonia solani. Kind of experiment: Antifungal activity against Rhizoctonia solani assessed as mycelium shrinkage incubated for 36 hrs. The class given is functional, organism-based.
For experiment [7], the system named is Rhizoctonia solani. Kind of experiment: Antifungal activity against Rhizoctonia solani assessed as appearance of disordered mycelium winding incubated for 36 hrs. The experiment is classed as functional, organism-based.
Experiment [8] relates to Rhizoctonia solani. Kind of experiment: Antifungal activity against Rhizoctonia solani assessed as appearance of wrinkling on mycelium surface incubated for 36 hrs. The class given is functional, organism-based.
The next experiment concerns Staphylococcus aureus. Kind of experiment: Antibacterial activity against Staphylococcus aureus CMCC(B)26003 by agar dilution method. The class given is functional.
The next experiment relates to Fusarium graminearum. Kind of experiment: Antifungal activity against Gibberella zeae at 50 ug/ml. The class given is functional.
The subject of experiment [9] is Rhizoctonia solani. Kind of experiment: Antifungal activity against Rhizoctonia solani. The experiment is classed as functional, organism-based.
The test system of experiment [10] is Rhizoctonia solani. Kind of experiment: Antifungal activity against Rhizoctonia solani assessed as appearance of irregular intertwining at 25 ug/ml by SEM analysis. The class given is functional, organism-based. The conditions noted are these: dose 25.0 µg/ml.
Experiment [11] relates to Rhizoctonia solani. Kind of experiment: Antifungal activity against Rhizoctonia solani assessed as protective effect at 400 ug/ml. The conditions noted are these: dose 400 µg/ml. The experiment is classed as functional.
Experiment [12] relates to Rhizoctonia solani. Kind of experiment: Antifungal activity against Rhizoctonia solani assessed as appearance of shrunk hyphae at 25 ug/ml by SEM analysis. The conditions noted are these: dose 25.0 µg/ml. The experiment is classed as functional, organism-based.
The subject of another experiment is Botrytis cinerea. Kind of experiment: Antifungal activity against Botrytis cinerea at 50 ug/ml. The class given is functional.
Experiment [13] relates to Rhizoctonia solani. Kind of experiment: Antifungal activity against Rhizoctonia solani assessed as appearance of contracted surface at 25 ug/ml by SEM analysis. The class given is functional, organism-based. Conditions: dose 25.0 µg/ml.
The next experiment deals with Alternaria solani. Kind of experiment: Antifungal activity against Alternaria solani at 50 ug/ml. The class given is functional.
Experiment [14] has as its system Rhizoctonia solani. Kind of experiment: Antifungal activity against Rhizoctonia solani at 50 ug/ml. The class given is functional.

Converted amounts (≈) assume the structure as drawn. The source made the active and inactive calls. The rule behind the calls is not given here. Some results are limits rather than exact numbers.

Regarding `COc1ccc(C[C@@]2(CN)CCC[C@]3(C)c4ccc(C(C)C)cc4CC[C@@H]23)cc1`, the result in the experiment on Rhizoctonia solani [1], in the experiment on Rhizoctonia solani [2], with Rhizoctonia solani [3], in the experiment with Rhizoctonia solani [4], in the experiment on Rhizoctonia solani [6] and in the experiment with Rhizoctonia solani [7] was Active. Besides, the outcome in the experiment with Rhizoctonia solani [8], in the experiment on Rhizoctonia solani [10], in the experiment on Rhizoctonia solani [12] and with Rhizoctonia solani [13] was Active. For the same compound, the values for the MIC with Escherichia coli and in the experiment on Staphylococcus aureus were 32 µg/mL (≈ 81.7 µM) and above 128 µg/mL, respectively. Also, the results for the Activity in the experiment with Rhizoctonia solani [5] and in the experiment with Rhizoctonia solani [11] were 27.7% and 76.9%, respectively. Besides, the inhibition at 50 µg/mL amounted to 34.8% with Fusarium graminearum, 85.2% in the experiment on Botrytis cinerea, 22.1% in the experiment with Alternaria solani and 95.6% in the experiment with Rhizoctonia solani [14]. The EC50 in the experiment with Rhizoctonia solani [9] was 5.21 µg/mL (≈ 13.3 µM).
